{"source": "patent US20200094070A1", "about": "“METHOD AND APPARATUS FOR PHOTOACTIVATING NUCLEAR RECEPTORS” (THERALASE BIOTECH INC., priority 2017, published 2020)", "key": {"CT26WT tumor cells": {"system": "CT26WT tumor cells", "assay": "LLLT and PDT in vivo hind leg tumor model", "parameters": "species or system Balb/c mice", "conditions": "LLLT 2.5-20 J/cm^2 daily for 5 days; injection on day 5; suboptimal red light PDT 90 J/cm^2 4 hours after injection", "description": "CT26WT tumor cells were implanted in the hind leg of Balb/c mice to develop a hind leg tumor model. […] TLD-1433 (14C) was injected on day 5 of LLLT treatment and suboptimal red light PDT (90 J/cm^2) was performed 4 hours after injection. Tumor size and survival were determined to examine the effect of LLLT on potentiating the effect of 14C-mediated PDT and improving the survival curve."}, "[1]": {"system": "human bladder cancer (T24) cells", "assay": "LLLT combined with 14C PDT, Presto Blue cell kill, T24 cells", "type": "cell-based", "conditions": "for 14C-mediated cell kill after LLLT: T24, 200 nM 14C", "method": "(§3) RG2 cells (15,000 cells) or human bladder cancer (T24) cells (10,000 cells) were seeded in complete DMEM in 96-well culture plates and incubated at 37° C., 5% CO2 overnight. The next day, the cells were washed once with PBS and the medium was replaced with complete DMEM without phenol red or sodium pyruvate. Cells were treated with either 660 nm, 905 nm or a combination of both wavelengths at the indicated fluence doses in J/cm^2. After 6 or 24 hours, the media was replaced with media containing the ruthenium-based PDC 14C (100 nM for RG2 cells and 200 nM for T24 cells) for 1 hour, then the PDC was washed away and the cells were treated with PDT using green laser light (wavelength: 530 nm, fluence 20 J/cm^2) using a 96-laser diode array light source (TLD3000, Theralase Inc. Toronto, ON, Canada), after which the plates were returned to the dark in the incubator overnight. Cell viability was measured by Presto Blue cell viability assay quantifying fluorescence at using a plate reader at excitation emissions of 560/600 nm. PDT-mediated cell kill was calculated by subtracting cell kill due to LLLT first and values were normalized to control cells that were kept in the dark and not treated with LLLT.\n(§4) RG2 cells (7,500 cells) or human bladder cancer (T24) cells (5,000 cells) were seeded in complete DMEM in 96-well culture plates and incubated at 37° C., 5% CO2 overnight. The next day, the cells were washed once with PBS and the medium was replaced with complete DMEM without phenol red or sodium pyruvate, with or without 10 uM GCR antagonist mifepristone for an additional 24 hours. Cells were treated with either 660 nm, 905 nm or a combination of both wavelengths at the indicated energy doses in J/cm^2. After 6 or 24 hours, the media was replaced with media containing the ruthenium-based photodynamic compound 14C (100 nM for RG2 cells and 200 nM for T24 cells) for 3 hours, then the drug was washed away and the cells were treated with PDT using green laser (wavelength: 530 nm, fluence 20 J/cm^2) using a 96-laser diode array light source (TLD-3000, Theralase Inc. Toronto, ON, Canada), and the plates were returned to the dark in the incubator overnight. Cell viability was measured by Presto Blue cell viability assay quantifying fluorescence at using a plate reader at excitation emissions of 560/600 nm."}, "Rat glioma (RG2) cells [2]": {"system": "Rat glioma (RG2) cells", "assay": "LLLT combined with 14C PDT, Presto Blue cell kill, RG2 cells", "type": "cell-based", "conditions": "for 14C-mediated cell kill after LLLT: RG2, 100 nM 14C", "method": "as §3, §4"}, "[3]": {"system": "human bladder cancer (T24) cells", "assay": "LLLT combined with Cisplatin, Presto Blue cell kill, T24 cells", "type": "cell-based", "conditions": "for Cisplatin-mediated cell kill after LLLT: T24, 1.5 ug/ml", "description": "(§1) After 6 or 24 hours, the cells were treated with Cisplatin (1 ug/ml for RG2 cells or 1.5 ug/ml for T24 cells), and the plates were returned to the incubator overnight. Cell viability was measured by Presto Blue cell viability assay quantifying fluorescence at using a plate reader at excitation emissions of 560/600 nm. Values were normalized to control cells that were kept in the dark and not treated with LLLT.\nas §1, with “Values will be” for “Values were”, “that are” for “that were”\n(§2) Cells were then treated with either: 1) the ruthenium-based PDC 14C followed by PDT using a green laser light source (FIGS. 24A-24D); 2) the antineoplastic drug Cisplatin (FIGS. 25A-25D). The plates were then returned to the incubator overnight. Cell viability was measured by Presto Blue cell viability assay quantifying fluorescence at using a plate reader at excitation emissions of 560/600 nm. Values were normalized to control cells that were […]."}, "Rat glioma (RG2) cells [4]": {"system": "Rat glioma (RG2) cells", "assay": "LLLT combined with Cisplatin, Presto Blue cell kill, RG2 cells", "type": "cell-based", "conditions": "for Cisplatin-mediated cell kill after LLLT: RG2, 1 ug/ml", "description": "as §1\nas §1, with “Values will be” for “Values were”, “that are” for “that were”\nas §2"}, "RG2 cells [5]": {"system": "RG2 cells", "assay": "Stem-like characteristics of cancer cells (qPCR of stem cell genes, proliferation rate) after LLLT", "type": "cell-based, rat", "conditions": "24 hours pre-treatment", "description": "Cells were then treated with 905 nm at fluence doses of 5 or 20 J/cm^2. Cells were incubated for 6 hours, then the cells were washed once with PBS and harvested by TRIzol reagent for RNA extraction (Invitrogen) per the manufacturer's protocol. 2 ug of RNA were used to prepare cDNA using the high-capacity cDNA reverse transcription kit (Thermofisher) and the cDNA was diluted 1:10. 2 μl of cDNA was used per PCR reaction using the SYBR green master mix and qPCR was run on the LightCycler 480 (Roche). Gene expression was normalized to the housekeeping gene HPRT, and values were normalized to control cells that were kept in the dark and not treated with LLLT. Relative analysis of stem cell associated transcription factor genes CD133, OCT4, NANOG, SOX2 and LIN28a, or proliferation promoting genes NESTIN, MSI1, MELK and ALDH1a1. […] Phase contrast images (4×) were taken every 4 hours using the Incucyte ZOOM system to calculate percent confluency overtime. […] Proliferation rate was calculated as the inverse of T (time when cells reach confluency halfway between original seeding density (15%) and final 100% confluency). Data were normalized to the corresponding dark control group (0 J/cm^2) for each drug expressed as 1 (not shown). […]"}, "RG2 cells [6]": {"system": "RG2 cells", "conditions": "Mifepristone 10 uM, 24 hours", "method": "(§5) RG2 cells (30,000 cells) or human bladder cancer (T24) cells (20,000 cells) are seeded in complete DMEM in 96-well Seahorse culture plates (Agilent technologies) and incubated at 37° C., 5% CO2. The cells are treated for 24 hours with the GCR agonist, dexamethasone, or the GCR antagonist, Mifepristone (10 uM). The cells are then washed once with PBS and the medium replaced with complete DMEM without phenol red or sodium pyruvate. Cells are treated with either 660 nm, 905 nm or a combination of both wavelengths at energy doses from 0.5 to 10 J/cm^2. Cells are incubated for 24 hours. The media is then replaced with XF media without sodium bicarbonate and the plate placed at 37° C. in XF prep station (0% CO2) for 1 hour. Basal ECAR and OCR levels are measured using XFe96 analyzer (Agilent technologies) per the manufacturer's protocol."}, "[7]": {"system": "human bladder cancer (T24) cells", "conditions": "Mifepristone 10 uM, 24 hours", "method": "as §5"}, "[8]": {"conditions": "LLLT 905 nm PW 5 J/cm^2 or 660 nm CW 2.5 J/cm^2 before PDT 530 nm 20 J/cm^2"}, "[9]": {"conditions": "LLLT higher fluence values of 20 and 10 J/cm^2"}, "[10]": {"conditions": "5 J/cm^2 for 905 nm PW and most conditions with 660 nm CW alone (Example 9A)"}, "[11]": {"conditions": "905 nm PW or combined 905 nm PW and 660 nm CW at 20 J/cm^2 (Example 9A)"}, "[12]": {"conditions": "T24, 10 uM pre-treatment, no LLLT"}, "[13]": {"conditions": "T24, 10 uM, LLLT 905 nm 5 J/cm^2, 660 nm 2.5 J/cm^2 or combination 5 J/cm^2"}, "[14]": {"conditions": "RG2, 10 uM pre-treatment, no LLLT"}, "[15]": {"conditions": "RG2, 10 uM, LLLT 905 nm 5 J/cm^2, 660 nm 2.5 J/cm^2 or combination 5 J/cm^2"}}, "data": [{"smiles": "Cc1ccnc(-c2cc(C)ccn2)c1.Cc1ccnc(-c2cc(C)ccn2)c1.[Cl-].[Cl-].[Ru+2].c1csc(-c2ccc(-c3ccc(-c4nc5c6cccnc6c6ncccc6c5[nH]4)s3)s2)c1", "note": "[14C]", "values": [{"measurement": "survival of mice, LLLT plus PDT compared to PDT only", "setting": "CT26WT tumor cells", "result": "synergistically increased the survival"}, {"measurement": "14C-mediated cell kill after LLLT", "setting": "[1]; [8]", "result": "increased"}, {"measurement": "14C-mediated cell kill after LLLT", "setting": "[1]; [9]", "result": "promoted cell survival"}, {"measurement": "14C-mediated cell kill after LLLT", "setting": "Rat glioma (RG2) cells [2]; [8]", "result": "increased"}, {"measurement": "14C-mediated cell kill after LLLT", "setting": "Rat glioma (RG2) cells [2]; [9]", "result": "promoted cell survival"}]}, {"smiles": "N.N.[Cl][Pt][Cl]", "note": "[Cisplatin]", "values": [{"measurement": "Cisplatin-mediated cell kill after LLLT", "setting": "[3]; [10]", "result": "promoted cell survival"}, {"measurement": "Cisplatin-mediated cell kill after LLLT", "setting": "[3]; [11]", "result": "increased"}, {"measurement": "Cisplatin effect after LLLT (without Mifepristone)", "setting": "[3]; T24, 905 nm 5 J/cm^2, 660 nm 2.5 J/cm^2 or combination 5 J/cm^2 (Example 19)", "result": "increased"}, {"measurement": "Cisplatin effective cell kill after LLLT (without Mifepristone)", "setting": "[3]; T24, higher doses 10-20 J/cm^2 (Example 19)", "result": "decreased"}, {"measurement": "Cisplatin-mediated cell kill after LLLT", "setting": "Rat glioma (RG2) cells [4]; [10]", "result": "promoted cell survival"}, {"measurement": "Cisplatin-mediated cell kill after LLLT", "setting": "Rat glioma (RG2) cells [4]; [11]", "result": "increased"}, {"measurement": "Cisplatin effect after LLLT (without Mifepristone)", "setting": "Rat glioma (RG2) cells [4]; RG2, 905 nm 5 J/cm^2, 660 nm 2.5 J/cm^2 or combination 5 J/cm^2 (Example 19)", "result": "increased"}, {"measurement": "Cisplatin effective cell kill after LLLT (without Mifepristone)", "setting": "Rat glioma (RG2) cells [4]; RG2, higher doses 10-20 J/cm^2 (Example 19)", "result": "decreased"}]}, {"smiles": "CC#C[C@]1(O)CC[C@H]2[C@@H]3CCC4=CC(=O)CCC4=C3[C@@H](c3ccc(N(C)C)cc3)C[C@@]21C", "note": "[Mifepristone]", "values": [{"measurement": "effect of Mifepristone treatment on Cisplatin cell kill", "setting": "[3]; [12]", "result": "did not have any significant effects"}, {"measurement": "cell kill by Mifepristone treatment alone", "setting": "[3]; T24, 10 uM, 24 hours (Example 19)", "result": "did not induce cell kill"}, {"measurement": "effect of Mifepristone pre-treatment on the synergistic effect of LLLT on Cisplatin", "setting": "[3]; [13]", "result": "significantly inhibited"}, {"measurement": "effect of Mifepristone pre-treatment on positive effects of LLLT on stem-like characteristics", "setting": "RG2 cells [5]", "result": "blocked"}, {"measurement": "effect of Mifepristone treatment on Cisplatin cell kill", "setting": "Rat glioma (RG2) cells [4]; [14]", "result": "did not have any significant effects"}, {"measurement": "cell kill by Mifepristone treatment alone", "setting": "Rat glioma (RG2) cells [4]; RG2, 10 uM, 24 hours (Example 19)", "result": "did not induce cell kill"}, {"measurement": "effect of Mifepristone pre-treatment on the synergistic effect of LLLT on Cisplatin", "setting": "Rat glioma (RG2) cells [4]; [15]", "result": "significantly inhibited"}, {"measurement": "effect on Warburg effect (glycolysis, mitochondrial respiration)", "setting": "RG2 cells [6]", "result": "potentiates the Warburg effect"}, {"measurement": "effect on LLLT inhibition of the Warburg effect", "setting": "RG2 cells [6]; then LLLT 0.5 to 10 J/cm^2", "result": "reverses the positive effect"}, {"measurement": "effect on Warburg effect (glycolysis, mitochondrial respiration)", "setting": "[7]", "result": "potentiates the Warburg effect"}, {"measurement": "effect on LLLT inhibition of the Warburg effect", "setting": "[7]; then LLLT 0.5 to 10 J/cm^2", "result": "reverses the positive effect"}, {"measurement": "effect of Mifepristone treatment on PDT cell kill", "setting": "[1]; [12]", "result": "did not have any significant effects"}, {"measurement": "cell kill by Mifepristone treatment alone", "setting": "[1]; T24, 10 uM, 24 hours", "result": "did not induce cell kill"}, {"measurement": "effect of Mifepristone pre-treatment on the synergistic effect of LLLT on 14C PDT", "setting": "[1]; [13]", "result": "significantly inhibited"}, {"measurement": "effect of Mifepristone treatment on PDT cell kill", "setting": "Rat glioma (RG2) cells [2]; [14]", "result": "did not have any significant effects"}, {"measurement": "cell kill by Mifepristone treatment alone", "setting": "Rat glioma (RG2) cells [2]; RG2, 10 uM, 24 hours", "result": "did not induce cell kill"}, {"measurement": "effect of Mifepristone pre-treatment on the synergistic effect of LLLT on 14C PDT", "setting": "Rat glioma (RG2) cells [2]; [15]", "result": "significantly inhibited"}]}]}
